We go through four compounds from patent US5955463A, “Quinazoline thymidylate synthase inhibitors” (Zeneca Limited, priority 1992, dated 1999).

For data set [1] the following is noted: particularly liver and kidney; cited from earlier work.
Data set [2] concerns human breast, ovarian and liver cancer. To be noted: clinical trials; cited from earlier work.
For data set [3], the system named is human breast cancer cell line MCF-7. As to the kind of experiment: Test (c): inhibition of growth of human breast cancer cell line MCF-7 in cell culture. The data set is classed as cell-based. The settings on record: MCF7, MCF-7 cell culture growth. From the text:
(c) An assay which determines the ability of a test compound to inhibit the growth of the human breast cancer cell line MCF-7 in cell culture.

Data set [4] concerns leukaemia cell line L1210. As to the kind of experiment: Test (b): inhibition of growth of leukaemia cell line L1210 in cell culture. The data set is classed as cell-based. To be noted: Mus musculus. From the text: (b) An assay which determines the ability of a test compound to inhibit the growth of the leukaemia cell line L1210 in cell culture.
Another data set addresses T1, thymidylate synthase (Mus musculus, UniProt P07607).
T1 construct: obtained in partially purified form from L1210 mouse leukaemia cells; endogenous in cells; host or cells: L1210 mouse leukaemia cells
As to the kind of experiment: Test (a): in vitro inhibition of thymidylate synthase (partially purified from L1210 mouse leukaemia cells). The data set is classed as biochemical. From the text:
(a) An in vitro assay which determines the ability of a test compound to inhibit the enzyme thymidylate synthase.

T1 sequence (P07607 whole entry): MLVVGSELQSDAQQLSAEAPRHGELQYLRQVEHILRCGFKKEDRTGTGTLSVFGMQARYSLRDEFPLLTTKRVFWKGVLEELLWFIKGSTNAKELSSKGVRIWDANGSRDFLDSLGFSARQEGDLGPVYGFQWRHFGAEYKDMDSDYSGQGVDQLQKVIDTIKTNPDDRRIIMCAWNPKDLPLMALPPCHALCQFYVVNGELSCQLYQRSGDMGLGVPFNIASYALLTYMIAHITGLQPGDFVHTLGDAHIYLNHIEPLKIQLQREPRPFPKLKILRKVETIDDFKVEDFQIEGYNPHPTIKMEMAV

For the compound `C#CCN(Cc1ccc2nc(N)[nH]c(=O)c2c1)c1ccc(C(=O)N[C@@H](CCC(=O)O)C(=O)O)cc1` [CB3717], the “symptoms of toxicity in humans” value in data set [1] is “shows symptoms of toxicity in humans, particularly in relation to the liver and kidney”. In addition, in data set [2], the “activity against human breast, ovarian and liver cancer” value was “promising activity against human breast, ovarian and liver cancer”.

Turning to `C#CCN(Cc1cc2c(=O)[nH]c(C)nc2cc1C)c1ccc(C(=O)N[C@@H](CCc2nnn[nH]2)C(=O)O)c(F)c1` [(2S)-2-{o-fluoro-p-[N-(2,7-dimethyl-4-oxo-3,4-dihydroquinazolin-6-ylmethyl)-N-(prop-2-ynyl)amino]benzamido}-4-(tetrazol-5-yl)butyric acid], the figures for the half-inhibitory concentration (IC50) in data set [3] and in data set [4] were about 10 nM and about 20 nM, respectively.

As for `C#CCN(Cc1ccc2nc(C)[nH]c(=O)c2c1)c1ccc(C(=O)N[C@@H](CCc2nnn[nH]2)C(=O)O)cc1` [(2S)-2-{p-[N-(2-methyl-4-oxo-3,4-dihydroquinazolin-6-ylmethyl)-N-(prop-2-ynyl)amino]benzamido}-4-(tetrazol-5-yl)butyric acid], the figures for the IC50 (at thymidylate synthase; in data set [3]; in data set [4]) were about 13 nM, about 40 nM and about 120 nM, respectively.

Consider `Cc1nc2cc(C)c(CN(C)c3ccc(C(=O)N[C@@H](CCc4nnn[nH]4)C(=O)O)c(F)c3)cc2c(=O)[nH]1` [(2S)-2-{o-fluoro-p-[N-(2,7-dimethyl-4-oxo-3,4-dihydroquinazolin-6-ylmethyl)-N-methylamino]benzamido}-4-(tetrazol-5-yl)butyric acid], for which the IC50 against thymidylate synthase was about 2 nM; in data set [3] it was about 40 nM; in data set [4], about 70 nM.

For orientation: IC50 means the concentration at which inhibition is half-maximal.
